Measurements as given in patent US12606561B2, “Substituted pyrazolo[1,5-a][1,3,5]triazines as CDK inhibitors” (QURIENT CO., LTD., priority 2018, dated 2026).
Where two headings read alike, the source gives them in different places.

Tests used:
[1] = biological target: T1, CDK1/Cyclin B (Homo sapiens, UniProt P06493); test: Enzymatic assay for CDK1 (LANCE Ultra kinase assay, FRET based); assay type: biochemical
T1 construct: purchased Invitrogen PR4768C
In short: (§1)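 Purified CDK–cyclin enzyme, ATP at Km; ULight peptide substrate; TR-FRET via Eu anti-phospho-Ab; inhibition scored.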

[2] = biological target: T2, CDK2/Cyclin A (Homo sapiens, UniProt P24941); test: Enzymatic assay for CDK2 (LANCE Ultra kinase assay, FRET based); assay type: biochemical; conditions: ATP at Km
T2 construct: purchased Invitrogen PV6290
In short: (§2)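 TR-FRET kinase assay at ATP Km with ULight-MBP peptide (68 nM) and Eu-anti-phospho-MBP antibody; CDK2/Cyclin A at […], CDK5/p25 at […]. 8-dose 4-fold compound dilutions; 60 min kinase reaction at 23° C., EDTA stop, 60 min detection, read at 615/665 nm.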

[3] = biological target: T3, CDK5/p25 (Homo sapiens, UniProt Q00535); test: Enzymatic assay for CDK5 (LANCE Ultra kinase assay, FRET based); assay type: biochemical; conditions: ATP at Km
T3 construct: purchased Invitrogen PR8543B
T3 sequence (Q00535 whole entry): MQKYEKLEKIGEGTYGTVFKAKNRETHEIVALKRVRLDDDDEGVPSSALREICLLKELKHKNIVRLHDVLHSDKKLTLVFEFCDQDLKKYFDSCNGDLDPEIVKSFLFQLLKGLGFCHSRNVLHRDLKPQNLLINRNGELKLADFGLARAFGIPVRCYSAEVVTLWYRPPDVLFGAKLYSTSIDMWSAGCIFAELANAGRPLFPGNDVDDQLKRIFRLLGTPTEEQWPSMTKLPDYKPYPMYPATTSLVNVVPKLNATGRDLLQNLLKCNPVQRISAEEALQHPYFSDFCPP
T3 sequence (Q15078 99-307 partner limits assumed): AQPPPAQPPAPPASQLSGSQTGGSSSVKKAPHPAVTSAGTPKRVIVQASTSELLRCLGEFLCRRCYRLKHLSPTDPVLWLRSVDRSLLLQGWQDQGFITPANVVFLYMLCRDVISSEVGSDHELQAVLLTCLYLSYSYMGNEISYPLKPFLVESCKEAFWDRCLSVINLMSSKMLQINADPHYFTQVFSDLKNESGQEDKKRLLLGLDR
In short: as §2

[4] = biological target: T4, CDK7/Cyclin H/MNAT1 (Homo sapiens, UniProt P50613); test: Enzymatic assay for CDK7 (LANCE Ultra kinase assay, FRET based); assay type: biochemical; conditions: for IC50: ATP at Km
T4 construct: purchased Invitrogen PR6749B
T4 sequence (P50613 whole entry): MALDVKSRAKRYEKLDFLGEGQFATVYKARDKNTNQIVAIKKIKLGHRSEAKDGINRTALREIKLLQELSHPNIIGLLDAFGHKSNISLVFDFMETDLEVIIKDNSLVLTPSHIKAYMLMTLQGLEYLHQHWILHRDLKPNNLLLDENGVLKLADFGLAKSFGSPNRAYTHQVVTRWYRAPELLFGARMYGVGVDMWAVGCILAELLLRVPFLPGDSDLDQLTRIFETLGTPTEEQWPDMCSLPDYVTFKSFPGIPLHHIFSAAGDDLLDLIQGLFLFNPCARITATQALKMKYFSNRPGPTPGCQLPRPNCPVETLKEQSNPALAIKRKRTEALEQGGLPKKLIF
T4 sequence (P51946 whole entry partner): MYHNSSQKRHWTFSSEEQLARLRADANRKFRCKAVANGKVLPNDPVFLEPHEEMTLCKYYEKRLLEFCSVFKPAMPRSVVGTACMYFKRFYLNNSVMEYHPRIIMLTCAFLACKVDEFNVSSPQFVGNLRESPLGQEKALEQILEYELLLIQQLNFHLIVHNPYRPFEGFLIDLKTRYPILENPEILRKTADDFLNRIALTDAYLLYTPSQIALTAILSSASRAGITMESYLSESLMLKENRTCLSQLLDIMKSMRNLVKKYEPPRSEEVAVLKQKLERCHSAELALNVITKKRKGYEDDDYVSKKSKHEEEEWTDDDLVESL
T4 sequence (P51948 whole entry partner): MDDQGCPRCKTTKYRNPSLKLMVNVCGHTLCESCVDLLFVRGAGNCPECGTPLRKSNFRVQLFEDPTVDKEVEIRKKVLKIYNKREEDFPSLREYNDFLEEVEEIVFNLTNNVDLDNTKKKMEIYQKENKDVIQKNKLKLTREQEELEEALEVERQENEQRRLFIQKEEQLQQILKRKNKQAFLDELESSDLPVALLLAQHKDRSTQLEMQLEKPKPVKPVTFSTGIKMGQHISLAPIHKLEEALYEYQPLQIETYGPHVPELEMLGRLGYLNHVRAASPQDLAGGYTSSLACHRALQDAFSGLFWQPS
In short: as §1

[5] = system: H460; test: Cellular H460 viability assay (CellTiter-Glo, 72 hours); assay type: cell-based; conditions: Homo sapiens, NCI-H460; H460 cells
Description: All cell lines were routinely tested for mycoplasma.
To effect of the CDK7 inhibitor to inhibit the growth of target cancer cells, viability assay were conducted a 72 hour time period. Briefly, the candidate cell line was plated in 96 well plate at the following density of cells respectively. 1×10^4 cells/well for MV4-11, 5×10^3 for H460 and OVCAR-3, and 1×10^3 for A2780. […] DMSO solvent without compound served as a control and final DMSO concentration lest than 0.1%. After 72 hours of incubation at 37° C., 5% CO2 incubator, cells were analyzed for the viability using the CellTiter-Glo Luminescent Cell Viability Assay (Promega, Cat #G7570). All viability assays were performed in duplicate and Luminescence was read using an Envision (Perkin Elmer, USA). Data was analyzed using XLfit software.

[6] = system: MV4-11; test: Cellular MV4-11 viability assay (CellTiter-Glo, 72 hours); assay type: cell-based; conditions: Homo sapiens; MV4-11 cells
In short: (§3)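 RPMI-1640/10% FBS; plate cells (MV4-11 1×10^4, OVCAR-3 5×10^3, A2780 1×10^3 per well); 24 h later add compound 0.0015–10 uM; 72 h, 37° C; CellTiter-Glo luminescence, duplicate wells.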

[7] = system: A2780; test: A2780 viability assay (CellTiter-Glo, 72 hours); assay type: cell-based; conditions: Homo sapiens; A2780 cells
In short: as §3

[8] = system: OVCAR-3; test: OVCAR-3 viability assay (CellTiter-Glo, 72 hours); assay type: cell-based; conditions: Homo sapiens; OVCAR-3 cells
In short: as §3

[9] = ATP at Km, read-out: CDK1 enzymatic activity IC50

T1 sequence (P06493 whole entry): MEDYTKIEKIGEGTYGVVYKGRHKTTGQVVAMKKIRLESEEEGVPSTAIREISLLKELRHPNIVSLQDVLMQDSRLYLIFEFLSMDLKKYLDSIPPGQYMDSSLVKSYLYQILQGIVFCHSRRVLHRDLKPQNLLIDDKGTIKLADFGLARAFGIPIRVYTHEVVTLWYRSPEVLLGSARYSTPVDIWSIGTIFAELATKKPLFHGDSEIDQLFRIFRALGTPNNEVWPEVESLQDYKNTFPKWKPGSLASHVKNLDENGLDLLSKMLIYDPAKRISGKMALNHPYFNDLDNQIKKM
T1 sequence (P14635 whole entry partner): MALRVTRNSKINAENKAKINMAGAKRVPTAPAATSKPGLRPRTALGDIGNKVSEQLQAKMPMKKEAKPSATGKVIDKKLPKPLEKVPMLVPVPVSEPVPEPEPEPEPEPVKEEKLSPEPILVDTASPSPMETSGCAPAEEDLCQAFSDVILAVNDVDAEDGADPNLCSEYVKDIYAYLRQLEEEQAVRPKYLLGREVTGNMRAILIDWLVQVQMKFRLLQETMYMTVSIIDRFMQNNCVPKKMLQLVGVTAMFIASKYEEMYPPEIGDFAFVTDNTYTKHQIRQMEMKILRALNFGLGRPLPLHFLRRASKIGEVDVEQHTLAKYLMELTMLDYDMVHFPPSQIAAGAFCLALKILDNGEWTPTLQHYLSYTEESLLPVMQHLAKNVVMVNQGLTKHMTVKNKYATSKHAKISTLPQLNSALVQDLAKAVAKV

SMILES | IC50 [1, 9] | IC50 [2] | IC50 [3] | IC50 [4] | CDK1/CDK7: Selectivity of CDK7 inhibition over CDK1 inhibition [4] | CDK2/CDK7: Selectivity of CDK7 inhibition over CDK2 inhibition [4] | CDK5/CDK7: Selectivity of CDK7 inhibition over CDK5 inhibition [4] | IC50 [5] | IC50 [6] | IC50 [7] | IC50 [8] | IC50 [1]
CC(C)c1cnn2c(NCc3cccc(OC4CCCN(C(=O)/C=C/CN(C)C)CC4)c3)nc(N3CCC(N)CC3)nc12 (racemic) [Compound 18] | > 1000 nM | 100 to 1000 nM | 100 to 1000 nM | < 100 nM | A (A indicates [fold] > 500) | B (B indicates 50 < [fold] ≤ 500) | B (B indicates 50 < [fold] ≤ 500) | < 1000 nM | – | – | – | –
CC(C)c1cnn2c(NCc3cccc(NC4CCCN(C(=O)/C=C/CN(C)C)CC4)c3)nc(N3CCC(N)CC3)nc12 (racemic) [Compound 21] | > 1000 nM | > 1000 nM | 100 to 1000 nM | < 100 nM | A (A indicates [fold] > 500) | B (B indicates 50 < [fold] ≤ 500) | B (B indicates 50 < [fold] ≤ 500) | 1000 to 10000 nM | – | – | – | –
CC(C)c1cnn2c(NCc3cccc(NC(=O)C4CCCN(C(=O)/C=C/CN(C)C)CC4)c3)nc(N3CCC(N)CC3)nc12 (racemic) [Compound 22] | > 1000 nM | 100 to 1000 nM | 100 to 1000 nM | < 100 nM | A (A indicates [fold] > 500) | B (B indicates 50 < [fold] ≤ 500) | C (C indicates [fold] ≤ 50) | 1000 to 10000 nM | – | – | – | –
CC(C)c1cnn2c(NCc3cccc(NC(=O)c4cccc(NC(=O)/C=C/CN(C)C)c4)c3)nc(N3CCC(N)CC3)nc12 [Compound 1] | – | 100 to 1000 nM | 100 to 1000 nM | < 100 nM | B (B indicates 50 < [fold] ≤ 500) | B (B indicates 50 < [fold] ≤ 500) | C (C indicates [fold] ≤ 50) | 1000 to 10000 nM | – | – | – | > 1000 nM
CC(C)c1cnn2c(NCc3cccc(Oc4cccc(NC(=O)/C=C/CN(C)C)c4)c3)nc(N3CCC(N)CC3)nc12 [Compound 2] | 100 to 1000 nM | 100 to 1000 nM | 100 to 1000 nM | < 100 nM | B (B indicates 50 < [fold] ≤ 500) | B (B indicates 50 < [fold] ≤ 500) | C (C indicates [fold] ≤ 50) | < 1000 nM | – | – | – | –
C=CC(=O)Nc1cccc(Oc2cccc(CNc3nc(N4CCC(N)CC4)nc4c(C(C)C)cnn34)c2)c1 [Compound 5] | > 1000 nM | 100 to 1000 nM | 100 to 1000 nM | < 100 nM | B (B indicates 50 < [fold] ≤ 500) | B (B indicates 50 < [fold] ≤ 500) | C (C indicates [fold] ≤ 50) | < 1000 nM | – | – | – | –
CC(C)c1cnn2c(NCc3ccccc3OC3CCN(C(=O)/C=C/CN(C)C)CC3)nc(N3CCC(N)CC3)nc12 [Compound 6] | > 1000 nM | > 1000 nM | 100 to 1000 nM | < 100 nM | A (A indicates [fold] > 500) | A (A indicates [fold] > 500) | C (C indicates [fold] ≤ 50) | < 1000 nM | – | – | – | –
CC(C)c1cnn2c(NCc3ccccc3-c3nccc4c(NC(=O)/C=C/CN(C)C)cccc34)nc(N3CCC(N)CC3)nc12 [Compound 9] | – | – | – | – | – | – | – | 1000 to 10000 nM | – | – | – | –
CC(C)c1cnn2c(NCc3cccc(Oc4ccc(F)c(NC(=O)/C=C/CN(C)C)c4)c3)nc(N3CCC(N)CC3)nc12 [Compound 13] | – | – | – | – | – | – | – | < 1000 nM | – | – | – | –

Second part, led by results:

IC50 [1, 9] | IC50 [2] | IC50 [3] | IC50 [4] | CDK1/CDK7: Selectivity of CDK7 inhibition over CDK1 inhibition [4] | CDK2/CDK7: Selectivity of CDK7 inhibition over CDK2 inhibition [4] | CDK5/CDK7: Selectivity of CDK7 inhibition over CDK5 inhibition [4] | IC50 [5] | IC50 [6] | IC50 [7] | IC50 [8] | SMILES | IC50 [1]
> 1000 nM | > 1000 nM | > 1000 nM | 100 to 1000 nM | B (B indicates 50 < [fold] ≤ 500) | B (B indicates 50 < [fold] ≤ 500) | B (B indicates 50 < [fold] ≤ 500) | – | < 1000 nM | < 1000 nM | < 1000 nM | CC(C)c1cnn2c(NCc3ccccc3-c3nccc4cc(NC(=O)/C=C/CN(C)C)ccc34)nc(N3CCC(NC(=O)OC(C)(C)C)CC3)nc12 [Compound 75] | –
> 1000 nM | > 1000 nM | > 1000 nM | < 100 nM | A (A indicates [fold] > 500) | A (A indicates [fold] > 500) | A (A indicates [fold] > 500) | – | < 1000 nM | < 1000 nM | < 1000 nM | CC(C)c1cnn2c(NCc3ccccc3-c3nccc4cc(NC(=O)/C=C/CN5CCCCC5)ccc34)nc(NC[C@H]3CCNC[C@@H]3O)nc12 [Compound 76] | –
> 1000 nM | > 1000 nM | > 1000 nM | < 100 nM | A (A indicates [fold] > 500) | A (A indicates [fold] > 500) | A (A indicates [fold] > 500) | – | < 1000 nM | 1000 to 10000 nM | 1000 to 10000 nM | C/C=C/C(=O)Nc1ccc2c(-c3ccccc3CNc3nc(NC[C@H]4CNC[C@@H]4O)nc4c(C(C)C)cnn34)nccc2c1 [Compound 77] | –
> 1000 nM | > 1000 nM | > 1000 nM | < 100 nM | A (A indicates [fold] > 500) | A (A indicates [fold] > 500) | B (B indicates 50 < [fold] ≤ 500) | – | < 1000 nM | < 1000 nM | 1000 to 10000 nM | C=C(F)C(=O)Nc1cccc2cc(-c3cccc(C)c3CNc3nc(NC[C@H]4CCNC[C@@H]4O)nc4c(C(C)C)cnn34)[nH]c12 [Compound 78] | –
> 1000 nM | > 1000 nM | > 1000 nM | < 100 nM | A (A indicates [fold] > 500) | A (A indicates [fold] > 500) | A (A indicates [fold] > 500) | – | < 1000 nM | < 1000 nM | < 1000 nM | C=C(F)C(=O)Nc1ccc2c(-c3ccccc3CNc3nc(N4CCNCC4)nc4c(C(C)C)cnn34)nccc2c1 [Compound 79] | –
